Like-named read-outs stand apart in the source and are kept apart here.
Experiments:
Type in all cases: biochemical
[1] = molecular target: Staph ligase (D-Ala-D-Ala ligase) (Staphylococcus aureus, UniProt Q5HEB7); assay: D-Ala-D-Ala ligase Ki determination (PK/LDH coupled assay), Staph ligase
Text: (§1) Inhibition of D-Ala-D-Ala ligase can be assayed for using the pyruvate kinase/lactate dehydrogenase (PK/LDH) assay described in Example 2, and as described in the literature (e.g., in Sarthy et al., Anal. Biochem., 254:288-290, 1997). In the bacterial cell wall synthesis process, the ligase catalyzes the conversion of adenosine triphosphate (ATP) to adenosine diphosphate (ADP) concurrent with the ligation of two D-alanine residues to form D-alanyl-D-alanine. PK then regenerates ATP from the ADP thus created simultaneously with the conversion of phosphopyruvate to pyruvate. LDH catalyzes the reduction of pyruvate to lactate by converting NADH to NAD^+. By monitoring the production rate of NAD^+ (e.g., using UV/Vis spectroscopy), D-Ala-D-Ala ligase activity can be ascertained.
(§2) The protein sequence for the enzyme D-ala-D-ala ligase has been determined in a variety of different bacterial species using standard techniques in biochemistry (see Table 5). The protein sequence from any species can be overexpressed in an appropriate host organism such as E. coli using standard molecular biology techniques. The ligase enzyme can be harvested, purified, and used in the above described assay for the determination of inhibitory activity.
(§3) The synthetic analogs of Example 1 were dissolved in dimethylsulfoxide (DMSO) at a concentration of 100 mM on the day of screening, using a vortex mixer and sonication if necessary for dissolution. The solutions were kept at room temperature until screening was completed.
(§4) A 10 mM NADH (Sigma) stock solution was prepared freshly on the day of screening by dissolving 32 μmol NADH in 3.2 ml double-distilled water. The NADH solution was kept on ice. Stock solutions containing 50 mM phosphoenolpyruvate (PEP; Sigma), 500 μM HERMES, 30 mM adenosine triphosphate (ATP; Sigma), 200 mM D-alanine (Sigma), and 4× core buffer (i.e., 400 mM Hepes, 40 mM magnesium chloride, and 40 mM potassium chloride), were also stored on ice. A stock solution of pyruvate kinase/lactate dehydrogenase (PK/LDH) was also obtained from Sigma.
(§5) Table of Final concentrations are dependent on the type of screening:
(§6) For each set of test compounds, two 96-well plates were used: an inhibitor plate and an enzyme plate. The test compounds correspond to rows A-G of the plates. Adenosine (Sigma) dissolved in DMSO, used as a control, corresponds to row H of each plate.
(§7) The enzyme solution was allowed to equilibrate to 25° C.
(§8) Dilutions were prepared in the inhibitor plate as follows: 50 μl DMSO was added to each well of columns 1-11, rows A-G, of the inhibitor plate. 50 μl DMSO were added to each well of columns 1-11, row H. 100 μl of the 100 mM test solutions were added to column 12, rows A-G (i.e., the first compound in row A, the second compound in row B, and so on). 100 μl of a 100 mM Adenosine solution was added to column 12, row H.
(§9) 50 μl of the test solution was transferred from column 12 in each row to column 11 of the a same row, mixing the solution with the DMSO. 50 μl of solution was then transferred from column 11 in each row to column 10 in the same row, 50 μl from column 10 was transferred to column 9, and so on, down to column 2. No solution was transferred to column 1. Multichannel pipettors were used in making the serial dilution.
(§10) 120 μl of the enzyme solution was added to each well of the enzyme plate.
(§11) The substrate solutions were brought to 25° C.
(§12) The analogs and enzymes were then incubated at 25° C. Since the reactions were initiated in columns, the analog addition is also in columns. At t=0 minutes, 5 μl analog was transferred from each well of columns 1-4 of the inhibitor plate to the corresponding well of the enzyme plate. At t=4 minutes, 5 μl analog was transferred from each well of columns 5-8 of the inhibitor plate to the corresponding well of the enzyme plate. At t=8 minutes, 5 μl analog was transferred from each well of columns 9-12 of the inhibitor plate to the corresponding well of the enzyme plate. The inhibitor plate was then frozen. […]

[2] = molecular target: E. coli ligase (D-Ala-D-Ala ligase) (Escherichia coli, UniProt P07862); assay: D-Ala-D-Ala ligase Ki determination (PK/LDH coupled assay), E. coli ligase
Text: as §1, §2, §3, §4, §5, §6, §7, §8, §9, §10, §11, §12

[3] = molecular target: T1, Strep ligase (D-Ala-D-Ala ligase) (Streptococcus pneumoniae serotype 4, UniProt P0CB57); assay: D-Ala-D-Ala ligase Ki determination (PK/LDH coupled assay), Strep ligase
T1 sequence (P0CB57 1-347): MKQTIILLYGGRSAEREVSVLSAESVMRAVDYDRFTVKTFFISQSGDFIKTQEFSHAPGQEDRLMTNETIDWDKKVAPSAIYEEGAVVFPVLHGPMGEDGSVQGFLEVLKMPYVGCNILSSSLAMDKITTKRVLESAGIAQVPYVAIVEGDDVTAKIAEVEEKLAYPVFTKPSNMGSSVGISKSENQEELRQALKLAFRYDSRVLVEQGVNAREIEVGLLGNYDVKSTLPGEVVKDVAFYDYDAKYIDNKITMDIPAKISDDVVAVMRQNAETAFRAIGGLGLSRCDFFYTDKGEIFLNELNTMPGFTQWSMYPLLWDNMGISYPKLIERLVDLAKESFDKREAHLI
Text: as §1, §2, §3, §4, §5, §6, §7, §8, §9, §10, §11, §12

[4] = molecular target: H. Influenzae ligase (D-Ala-D-Ala ligase) (Haemophilus influenzae, UniProt P44405); assay: D-Ala-D-Ala ligase Ki determination (PK/LDH coupled assay), H. influenzae ligase
Chain of H. Influenzae ligase (D-Ala-D-Ala ligase) (P44405 whole entry): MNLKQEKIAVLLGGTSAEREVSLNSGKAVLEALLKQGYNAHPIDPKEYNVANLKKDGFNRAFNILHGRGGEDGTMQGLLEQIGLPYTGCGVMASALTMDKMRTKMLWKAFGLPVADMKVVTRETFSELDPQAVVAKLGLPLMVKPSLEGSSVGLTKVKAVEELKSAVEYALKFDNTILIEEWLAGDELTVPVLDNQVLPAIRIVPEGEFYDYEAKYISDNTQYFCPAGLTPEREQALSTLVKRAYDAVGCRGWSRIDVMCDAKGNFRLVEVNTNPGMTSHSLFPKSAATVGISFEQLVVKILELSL
Text: as §1, §2, §3, §4, §5, §6, §7, §8, §9, §10, §11, §12

[5] = Table 2, read-out: Staph ligase
[6] = Table 1, read-out: Ki (E. coli ligase)/μM
[7] = Table 5, Ki/ATP, avg, read-out: Strep ligase Ki/ATP (uM) avg
[8] = Table 5, Ki/ATP, avg, read-out: Staph ligase Ki/ATP (uM) avg
[9] = E. coli ligase Ki/ATP (uM) avg, Table 5, Ki/ATP, avg
[10] = Table 5, Ki/ATP, avg, read-out: H. Influenzae ligase Ki/ATP (uM) avg
[11] = Table 4, Ki/ATP, avg, read-out: Strep ligase Ki/ATP (uM) avg
[12] = Table 4, Ki/ATP, avg, read-out: Staph ligase Ki/ATP (uM) avg
[13] = E. coli ligase Ki/ATP (uM) avg, Table 4, Ki/ATP, avg
[14] = Table 4, Ki/ATP, avg, read-out: H. Influenzae ligase Ki/ATP (uM) avg

Chain of Staph ligase (D-Ala-D-Ala ligase) (Q5HEB7 whole entry): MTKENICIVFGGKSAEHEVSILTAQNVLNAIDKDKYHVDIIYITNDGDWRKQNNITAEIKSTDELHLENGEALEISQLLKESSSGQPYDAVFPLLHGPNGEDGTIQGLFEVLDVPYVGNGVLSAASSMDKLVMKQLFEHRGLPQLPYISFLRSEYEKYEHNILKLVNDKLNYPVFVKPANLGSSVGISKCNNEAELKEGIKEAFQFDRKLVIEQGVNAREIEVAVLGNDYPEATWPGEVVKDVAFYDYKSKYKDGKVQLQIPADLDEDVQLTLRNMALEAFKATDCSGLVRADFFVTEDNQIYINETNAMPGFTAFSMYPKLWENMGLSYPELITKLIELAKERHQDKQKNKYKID

Compound: CCC(c1cccc2ccccc12)N(C)c1ncc2c(N)nc(N)nc2n1 (centres unmarked) [—CH3|C2H5|R/S|H, N7-Methyl-N-7-(1-naphthalen-1-yl-propyl)-pyrimido[4,5-d]pyrimidine-2,4,7-triamine]
- Ki [1, 5]: 4.6 µM
- Ki ([2]; E. coli ligase (μM), Table 2): 0.452 µM

Compound: Nc1nc(N)c2ncc(CNC(CO)CSCc3ccccc3)nc2n1 (centres unmarked)
- Ki [2, 6]: 55 µM

Compound: CCOc1ccc2ccccc2c1CN(CC(=O)O)c1ncc2c(N)nc(N)nc2n1
- Ki [2, 6]: 8.7 µM

Compound: C[C@H](c1ccc(F)c2ccccc12)N(C)c1ncc2c(N)nc(N)nc2n1 [CH3|CH3|R|F]
- Ki [1, 5]: 27 µM
- Ki ([2]; E. coli ligase (μM), Table 2): 0.104 µM

Compound: CCOc1ccc2ccccc2c1CN(CC(O)C(=O)O)c1ncc2c(N)nc(N)nc2n1 (centres unmarked)
- Ki ([3]; read-out: activity against Strep (ligase)): 2.6 µM
- Ki ([1]; read-out: activity against Staph (ligase)): 4.1 µM
- Ki ([2]; E. coli ligase potency): 0.143 µM
- Ki ([4]; read-out: activity against H. influenzae (ligase)): 0.566 µM

Compound: Nc1nc(N)c2cnc(N(CCCO)Cc3ccccc3)nc2n1
- Ki [2, 6]: 14 µM

Compound: CCCN(c1ncc2c(N)nc(N)nc2n1)C(C)c1cccc2ccccc12 (centres unmarked)
- Ki [3, 7]: 439 µM
- Ki [1, 8]: 58 µM
- Ki [2, 9]: 2 µM
- Ki [4, 10]: 2.7 µM

Compound: C[C@@H](c1cccc2ccccc12)N(CCC(=O)O)c1ncc2c(N)nc(N)nc2n1
- Ki [3, 11]: 14.6 µM
- Ki [1, 12]: 10 µM
- Ki [2, 13]: 4.2 µM
- Ki [4, 14]: 5.7 µM

Compound: C[C@@H](c1cccc2ccccc12)N(CC(O)C(=O)O)c1ncc2c(N)nc(N)nc2n1 (some centres unmarked)
- Ki [3, 11]: 4.3 µM
- Ki [1, 12]: 4.3 µM
- Ki [2, 13]: 1.4 µM
- Ki [4, 14]: 3.5 µM

Compound: Nc1nc(N)c2cnc(N[C@H]3CCCc4ccccc43)nc2n1
- Ki [2, 6]: 16 µM

Compound: CC(c1cccc2ccccc12)N(CCCCN)c1ncc2c(N)nc(N)nc2n1 (centres unmarked) [drawing 41]
- Ki [2, 6]: 0.13 µM

Compound: Cc1ccc(C(C)N(C)c2ncc3c(N)nc(N)nc3n2)c2ccccc12 (centres unmarked) [—CH3|CH3|R/S|CH3, N7-Methyl-N7-[1-(4-methyl-naphthalen-1-yl)-ethyl]-pyrimido[4,5-d]pyrimidine-2,4,7-triamine]
- Ki [1, 5]: 12.3 µM
- Ki ([2]; E. coli ligase (μM), Table 2): 0.277 µM

Compound: Nc1nc(N)c2cnc(CSc3ccc(Cl)cc3)nc2n1
- Ki [2, 6]: 12 µM

Compound: CCN(c1ncc2c(N)nc(N)nc2n1)C(C)c1ccc(C)c2ccccc12 (centres unmarked) [—CH2CH3|CH3|R/S|CH3]
- Ki [1, 5]: 38.5 µM
- Ki ([2]; E. coli ligase (μM), Table 2): 0.21 µM

Compound: Cc1ccc([C@@H](C)N(CC2CC2)c2ncc3c(N)nc(N)nc3n2)c2ccccc12 [—CH2CH(CH2)2|CH3|R|CH3]
- Ki [1, 5]: 62 µM
- Ki ([2]; E. coli ligase (μM), Table 2): 0.174 µM

Compound: CCOc1ccc2ccccc2c1CN(CCC(=O)NCc1ccccn1)c1ncc2c(N)nc(N)nc2n1
- Ki ([3]; Table 3, Ki/ATP, avg, read-out: Strep ligase Ki/ATP (uM) avg): 3.1 µM
- Ki ([1]; Table 3, Ki/ATP, avg, read-out: Staph ligase Ki/ATP (uM) avg): 9.5 µM
- Ki ([2]; E. coli ligase Ki/ATP (uM) avg, Table 3, Ki/ATP, avg): 9.6 µM
- Ki ([4]; Table 3, Ki/ATP, avg, read-out: H. Influenzae ligase Ki/ATP (uM) avg): 0.267 µM

Compound: CC(c1cccc2ccccc12)N(CCCCN)c1ncc2c(N)nc(N)nc2n1 (centres unmarked) [drawing 55]
- Ki [3, 7]: 23.1 µM
- Ki [1, 8]: 32 µM
- Ki [2, 9]: 0.135 µM
- Ki [4, 10]: 4.2 µM

Compound: CCOc1ccc2ccccc2c1CN(CCCCN)c1ncc2c(N)nc(N)nc2n1 [N7-(4-Amino-butyl)-N-7-(2-ethoxynaphthalen-1-ylmethyl)-pyrimido[4,5-d]pyrimidine-2,4,7-triamine]
- Ki [3, 7]: 4.5 µM
- Ki [1, 8]: 15 µM
- Ki [2, 9]: 0.105 µM
- Ki ([2]; Ki against the ligase isolated from E. coli): 0.102 µM
- Ki [4, 10]: 0.52 µM

Compound: Nc1nc(N)c2cc(NCc3ccc(C(=O)NCc4ccccn4)cc3)ccc2n1
- Ki [2, 6]: 73 µM

Compound: Nc1nc(N)c2ccc(-c3ccccc3)nc2n1
- Ki [2, 6]: 31 µM

Compound: Nc1nc(N)c2cnc(NCc3ccc(Cl)c(Cl)c3)nc2n1
- Ki [2, 6]: 20 µM

Compound: CC(c1cccc2ccccc12)N(C)c1ncc2c(N)nc(N)nc2n1 (centres unmarked) [—CH3|CH3|R/S|H]
- Ki [1, 5]: 9.28 µM
- Ki ([2]; E. coli ligase (μM), Table 2): 0.718 µM

Source: patent US20080090847A1, “HETEROCYCLIC COMPOUNDS AND USES THEREOF AS D-ALANYL-D-ALANINE LIGASE INHIBITORS” (PLIVA D.D., priority 2001, published 2008)
